According to patent publication US20230181578A1, “MODULATION OF MIXED LINEAGE KINASE DOMAIN-LIKE PROTEIN SIGNALING” (EBERHARD KARLS UNIVERSITÄT TÜBINGEN, priority 2020, published 2023):
Positions count from the first letter of the chain named.

Key:
[1] = molecular target: T1, hMLKL1 (Homo sapiens, UniProt Q8NB16); test: Necroptosis inhibition in HT-29 MLKL ko cells re-expressing hMLKL1; assay type: cell-based; details: HT-29 MLKL ko re-expressing hMLKL1
T1 construct: GFP; expressed in transfected cells; host or cells: HT-29 MLKL ko cells
T1 sequence (Q8NB16 1-471): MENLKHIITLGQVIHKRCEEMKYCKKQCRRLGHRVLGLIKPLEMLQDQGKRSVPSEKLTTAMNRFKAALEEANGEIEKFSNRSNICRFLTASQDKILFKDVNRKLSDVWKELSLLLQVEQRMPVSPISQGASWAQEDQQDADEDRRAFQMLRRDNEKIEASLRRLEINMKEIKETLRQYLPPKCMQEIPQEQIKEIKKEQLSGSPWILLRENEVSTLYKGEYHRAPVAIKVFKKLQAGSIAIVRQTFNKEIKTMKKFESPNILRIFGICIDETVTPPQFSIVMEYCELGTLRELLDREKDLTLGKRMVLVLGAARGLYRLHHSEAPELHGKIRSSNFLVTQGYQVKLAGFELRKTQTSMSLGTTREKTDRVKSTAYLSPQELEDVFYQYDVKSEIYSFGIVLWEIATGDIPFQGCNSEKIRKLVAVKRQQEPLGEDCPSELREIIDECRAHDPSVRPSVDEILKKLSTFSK
Text: The species-specificity was expected considering the large difference in the He/groove interactions between mouse and human MLKL (FIGS. 3 and 4).

[2] = system: HT-29; test: Necroptosis inhibition assay, TSZ-treated human HT-29 cells; assay type: cell-based
Text: (§1) A-B) Dose-dependence of the inhibitory effect of MBA-h1 (A) or MBA-m1M (B) on necroptotic cell death in human (HT-29) and mouse (NIH-3T3) cells. C-D) Effect of MBA-h1 (C) or MBA-m1 (D) on MLKL phosphorylation. E-F) Effect of MBA-h1 (E) or MBA-m1 (F) on MLKL translocation to the plasma membrane. HT-29 (C and E) or NIH-3T3 (D and F) wt cells were TSZ-treated in the presence or not of the inhibitors. NSA was used as a control in C and E. G) Inhibitory effect of MBA-m1 in MLKL ko cells transfected with mMLKL2 or the mutant mMLKL2_I84A_F87A. Cells were transfected with the different variants of MLKL-GFP. The dead cell population was calculated from transfected cells. Individual values from at least three independent experiments are shown. H-I) MBA-m1 ameliorates dermatitis in Tnfr1-KO HoipE-KO mice. H) Representative images of mice before and after 2 weeks' treatment with MBA-m1. I) Severity score of dermatitis assessed after and before treatment with the inhibitor. Tnfr1-KO HoipE-KO (n=3). To quantify the sore of region affected, 0 values were assigned to no lesion, and 1 values were assigned when lesions were found in either neck, back, flank or head, being the sum of these elements taken as the final score. To quantify the character of lesions, 0 values were assigned to no lesions, 1 to excoriations one or small punctuate crust, 2 to multiple punctuate crust or coalescing crust, 3 to erosion, ulceration or bleeding. Data are presented as mean values±s.e.m.
(§2) To evaluate the necroptotic potential of the different mMLKL isoforms, each of the three isoforms were re-expressed in NIH-3T3 MLKL knock out (ko) cells following induction of necroptosis with a mixture of TNF, a Smac mimetic compound (LCL-161) and the pan-caspase inhibitor zVAD (TSZ), which is the most commonly used necroptosis-inducing cocktail. The inventors quantified cell death by flow cytometry (FIG. 1B) and confocal microscopy (FIG. 1C) using propidium iodide (PI) as a marker of irreversible plasma membrane disruption. As expected, mMLKL3 was intrinsically active, on account of its lack of the psK domain. […]

[3] = system: MLKL; test: MLKL translocation to the plasma membrane, TSZ-treated HT-29 wt cells; assay type: cell-based, human; details: FIG. 6E
Text: as §1, with “Tnfr1-KO HoipE-KO (n=3).” left out, “Data are presented as mean values±s.e.m.” left out

[4] = system: phosphorylated MLKL; test: MLKL phosphorylation, Western-blot, TSZ-treated HT-29 wt cells; assay type: cell-based, human; details: FIG. 6C
Text: as §1, with “Tnfr1-KO HoipE-KO (n=3).” left out, “Data are presented as mean values±s.e.m.” left out

[5] = system: Tnfr1KO;HoipEKO mice; test: Necroptosis-driven dermatitis in Tnfr1KO;HoipEKO mice; assay type: in vivo, mouse; details: treated daily for three weeks from 30 to 40 days of age, end of treatment
Text: as §1, with “H) Representative images of mice before and after 2 weeks' treatment with MBA-m1.” left out, “values±s.e.m. […]” for “values±s.e.m.”

[6] = system: NIH-3T3 WT cells; test: Necroptosis inhibition assay, TSZ-treated mouse NIH-3T3 WT cells; assay type: cell-based
Text: as §1, §2

[7] = system: MLKL; test: MLKL translocation to the plasma membrane, TSZ-treated NIH-3T3 wt cells; assay type: cell-based, mouse; details: FIG. 6F
Text: as §1, with “Tnfr1-KO HoipE-KO (n=3).” left out, “Data are presented as mean values±s.e.m.” left out

[8] = system: phosphorylated MLKL; test: MLKL phosphorylation, Western-blot, TSZ-treated NIH-3T3 wt cells; assay type: cell-based, mouse; details: FIG. 6D
Text: as §1, with “Tnfr1-KO HoipE-KO (n=3).” left out, “Data are presented as mean values±s.e.m.” left out

[9] = molecular target: T2, mMLKL2 (Mus musculus, UniProt Q9D2Y4); test: Necroptosis inhibition in NIH MLKL ko cells containing mMLKL2; assay type: cell-based
T2 construct: GFP; expressed in transfected cells; host or cells: NIH-3T3 MLKL ko cells
T2 sequence (Q9D2Y4 1-464 isoform Q9D2Y4-2): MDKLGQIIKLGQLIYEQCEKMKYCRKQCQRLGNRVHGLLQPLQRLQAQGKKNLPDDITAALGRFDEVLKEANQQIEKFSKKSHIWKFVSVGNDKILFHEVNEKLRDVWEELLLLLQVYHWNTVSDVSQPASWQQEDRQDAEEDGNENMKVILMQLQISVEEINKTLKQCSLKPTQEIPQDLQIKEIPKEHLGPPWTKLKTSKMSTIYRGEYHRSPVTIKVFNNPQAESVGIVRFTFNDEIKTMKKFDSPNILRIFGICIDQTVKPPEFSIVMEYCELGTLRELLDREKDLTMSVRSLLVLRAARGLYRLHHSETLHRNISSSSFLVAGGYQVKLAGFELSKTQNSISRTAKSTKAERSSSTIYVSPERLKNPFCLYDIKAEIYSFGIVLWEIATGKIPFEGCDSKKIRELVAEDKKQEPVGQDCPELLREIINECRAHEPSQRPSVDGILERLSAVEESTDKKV
Text: as §1, with “Tnfr1-KO HoipE-KO (n=3).” left out, “Data are presented as mean values±s.e.m.” left out

[10] = molecular target: T3, mMLKL2_I84A_F87A (Mus musculus, UniProt Q9D2Y4, F87A/I84A); test: Cell death assay in MLKL ko cells transfected with mutant mMLKL2_I84A_F87A; assay type: cell-based; details: FIG. 6G
T3 construct: GFP; expressed in transfected cells
T3 sequence (Q9D2Y4 1-464 isoform Q9D2Y4-2 I84A/F87A): T2 sequence (Q9D2Y4 1-464 isoform Q9D2Y4-2) with I84A, F87A
Text: as §1, with “Tnfr1-KO HoipE-KO (n=3).” left out, “Data are presented as mean values±s.e.m.” left out

CN1CCN(c2ccc(-c3cccc(NC(=O)c4ccc5ccccc5c4)c3)nn2)CC1 [MBA-h1, N-[3-[6-(4-methylpiperazin-1-yl)pyridazin-3-yl]phenyl]naphthalene-2-carboxamide]
inhibition of necroptosis [1]: inhibited necroptosis
concentrations at which inhibitory activity was observed ([2]; HT-29 cells, FIG. 6A): lower than 10 μM
toxicity ([2]; at inhibitory concentrations, FIG. 6A): without evidence of toxicity
inhibition of necroptosis ([2]; human HT-29 cells, dose-dependent (FIG. 6A)): specifically inhibited necroptosis
effect on MLKL translocation to the plasma membrane [3]: potently interfered with MLKL translocation to the plasma membrane
effect on MLKL phosphorylation [4]: none of the compounds blocked the phosphorylation of MLKL

COc1ccc2nc(C)cc(Nc3ccc(Oc4ccc5ccccc5c4)c(Cl)c3)c2c1 [MBA-m1, N-(3-chloro-4-naphthalen-2-yloxyphenyl)-6-methoxy-2-methylquinolin-4-amine]
dermatitis, severity score of skin lesions [5]: significantly ameliorated dermatitis
concentrations at which necroptosis is inhibited ([6]; NIH-3T3 cells, FIG. 6B, compared with MBA-h1 (lower than 10 μM)): able to inhibit necroptosis at similar concentrations
concentrations at which toxicity was presented ([6]; higher concentrations, FIG. 6B): 12.5 to 50 µM
inhibition of necroptosis ([6]; mouse NIH-3T3 WT cells, dose-dependent (FIG. 6B)): specifically inhibited necroptosis
effect on MLKL translocation to the plasma membrane [7]: potently interfered with MLKL translocation to the plasma membrane
effect on MLKL phosphorylation [8]: none of the compounds blocked the phosphorylation of MLKL
inhibition of necroptosis [9]: had the same effect
inhibition of cell death mediated by mutant mMLKL2_I84A_F87A [10]: inert to inhibition

COc1nccnc1NS(=O)(=O)c1ccc(NC(=O)/C=C/c2ccc([N+](=O)[O-])s2)cc1 [NSA, reference compound]
effect on MLKL translocation to the plasma membrane [3]: interfered with MLKL translocation to the plasma membrane
